Measured values as given in patent US20200393397A1, “DEVICE FOR PERFORMING ELECTRICAL MEASUREMENTS” (Mimetas B.V., priority 2018, published 2020).

System: Caco-2 tubules
Test: TEER measurement of Caco-2 tubules in 2-lane Organoplate during staurosporine exposure
Format: cell-based, human
Protocol: Day 0: Collagen-1 gel was injected into one of the channels (gel channel) of a 2-lane Organoplate. After curing of the gel, Caco-2 cells (Sigma, human colon carcinoma cells) in culture medium were seeded in the other channel (perfusion channel) and allowed to proliferate. Culture medium was refreshed daily. […] Following this protocol, 40 chips, comprising a gel channel and a perfusion channel separated by a phaseguide, were seeded with Caco-2 cells, meaning that 40 tubules were grown simultaneously in a single 2-lane Organoplate. The method of culturing cells in this system is similar to the one described by Trietsch et al (Nature Communications, volume 8, Article number: 262(2017), doi:10.1038/s41467-017-00259-3).
A TEER measurement was performed daily at days 1 to 11. To this end, gold plated electrodes were inserted into the access wells of the gel and perfusion channel. For 5 to 10 seconds per chip, impedance spectra were recorded at frequencies ranging logarithmically from 10 Hz to 1 MHz.
At day 5, the 40 Caco-2 tubules were exposed to different concentrations of staurosporine (Sigma, S4400) for 12 hours.

## CN[C@@H]1C[C@H]2O[C@@](C)([C@@H]1OC)n1c3ccccc3c3c4c(c5c6ccccc6n2c5c31)C(=O)NC4 [staurosporine]
Day 5, concentration of 47 nM, 12 hours exposure (FIG. 8)
  effect on the TEER: an effect on the TEER can be observed
Day 5, exposure to different concentrations for 12 hours (FIG. 8)
  effect on the TEER values: concentration dependent effect
